From patent US20080153792A1, “Drug Identification and Treatment Method” (priority 2006, published 2008)

How the values were obtained:
[1] = system: mice given a lethal amount of LPS; experiment: lethal shock protocol, lethal amount of bacterial LPS; type: in vivo, mouse; settings: for survival 72 hours after LPS: first protocol
Procedure: Treatment of lethal inflammation/shock. Two compounds, 16α-bromoepiandrosterone (3β-hydroxy-16α-bromoandrostane-17-one) and 3β,16α-dihydroxy-17-oxoandrostane, were used in a lethal shock protocol. In one protocol, 3 mg of 16α-bromoepiandrosterone was administered to one group of animals by oral gavage, while another group received 3 mg of 16α-bromoepiandrosterone by subcutaneous injection. A group of control animals received a placebo control. In this protocol, the 16α-bromoepiandrosterone was administered to mice at 24 hours before and at 1 hour after administration of a lethal amount of bacterial lipopolysaccharide (LPS). By the end of the observation period, 72 hours after LPS administration, none of the vehicle treated placebo control animals had survived, while 65% of animals that received 16α-bromoepiandrosterone by oral administration survived. 50% of the animals that received 16α-bromoepiandrosterone by subcutaneous injection survived. Animals that survived for 72 hours all recovered from the LPS exposure.
In a second assay, 16α-bromoepiandrosterone or 3β,16α-dihydroxy-17-oxoandrostane was administered to mice by oral gavage at 24 hours before and 1 hour after administration of a lethal amount of LPS. A vehicle treated group of animals was used as the placebo control.

NF-κB = experiment: NF-κB-bla THP-1 β-lactamase reporter assay; type: cell-based, human
[2] = system: γ-interferon production by human whole blood; experiment: γ-interferon production in human whole blood exposed to LPS; type: cell-based; settings: LPS 24 hours; 16α-bromoepiandrosterone at 100 ng/mL
Procedure: Anti-inflammation activity in human cells in vitro. […] The amount of γ-interferon was measured in the growth medium when the cells had been incubated in the presence of LPS for 24 hours.

[3] = system: CD4^+CD25^+ T regulatory cells; experiment: CD4+CD25+ T regulatory cells after adoptive transfer of CD4+CD25- T cells; type: in vivo, mouse; settings: 1 mg/animal/day s.c. for 14 days
Procedure: Inhibition of the generation of CD4^+CD25^+ T regulatory cells or their activity in vivo. Purified CD4^+CD25^− T cells (5×10^6 cells) from congenic B6.5JL mice (CD45.1) per group were adoptively transferred into each of five B6 mice (CD45.2). The purified CD4^+CD25^− T cells were obtained by fluorescence activated cell sorting (FACS) of the donor cells at least twice. Vehicle (0.1% carboxymethylcellulose, 0.9% saline, 2% tween 80, 0.05% phenol) or 16α-bromoepiandrosterone in vehicle (1 mg/animal/day in 100 μL vehicle) was injected subcutaneously before transfer of the cells from the CD45.1 donor animals and the injections were continued daily for 14 days. Thymus, lymph nodes and spleens were collected from the animals at day 15. Samples of thymus, lymph node and spleen were obtained from individuals, and the cells were labeled with fluorescent antibody that bound to CD4, CD25, CD103 or Foxp3. The cells were then analyzed by flow cytometry to enumerate the numbers of the various cell types. The remainder of cells from lymph nodes and spleen of each treatment group were pooled, pre-enriched for CD4^+CD25^+ cells and then analyzed for CD4^+CD25^+ that arose from the host (endogenous CD45.2 cells) and from donor cells (CD45.1 cells that converted from the CD4^+CD25^− donor phenotype to the CD4^+CD25^+ phenotype after residing in vivo for 15 days). The cells were analyzed by cell sorter. To test for regulatory function, varying numbers of purified converted CD45.1 or endogenous CD45.2 CD4^+CD25^+ cells were co-cultured with 2000 CD4^+CD25^− responder cells, 1×10^5 irradiated spleen cells as antigen presenting cells, and […] of anti-CD3 antibody. Fresh CD4^+CD25^+ cells were used as controls. Proliferation was determined by measurement of ^3H-thymidine uptake 4 days after initiation of culture.

[4] = system: mice, LPS induced lung injury; experiment: lung injury by sublethal LPS to trachea and lungs, BAL cell count; type: in vivo, mouse; settings: oral gavage 24 h before and 1 h after 100 μg LPS; 48 hours
Procedure: In another assay, the capacity of 16α-bromoepiandrosterone and 3β,16α-dihydroxy-17-oxoandrostane to protect against lung injury induced by exposure to a sublethal amount of LPS in mice was shown. In this assay, the compounds, sterile saline (negative control) or vehicle (vehicle control) were administered to groups of 5 mice by oral gavage at 24 hours before and 1 hour after administration of 100 μg of LPS to the trachea and lungs of animals under light anesthesia. At 48 hours the animals were sacrificed and samples were obtained from the lungs of the animals by bronchiolar alveolar lavage (BAL). The numbers of cells in the BAL fluid were counted, with high numbers of cells showing lung inflammation and damage. In this assay, cells that mediate inflammation and lung damage infiltrate into the lungs in response to the presence of the LPS. In the negative control and vehicle control groups, the BAL fluid contained about 6×10^7 cells/mL. […] Other compounds, e.g., 17α-ethynylandrost-5-ene-3β,7β,17β-triol or 17β-aminoandrost-5-ene-3β-ol, can be characterized in a similar manner.

Pseudomonas aeruginosa = experiment: clearance of chronic lung infection in CFTR mice; type: in vivo; settings: 40 mg/kg; day 10; p=<0.04 vs vehicle
Procedure: Clearance of bacteria from lung tissue. The capacity of 16α-bromoepiandrosterone to clear a Pseudomonas aeruginosa infection from lung tissue was shown using a previously published protocol, A. van Heeckeren et al., J. Clin. Invest., 100(11):2810-2815 […]; A. van Heeckeren et al., Am. J. Respir. Crit. Care Med., 161:271-279 2000. The protocol was conducted in CFTR mice, which are used as an animal model for human cystic fibrosis, S. D. Freedman et al., Proc. Natl. Acad. Sci. USA, 96(24):13995-14000 1999; W. Zeng et al., Am. J. Physiol. Cell. Physiol. […] Establishment of chronic P. aeruginosa infection using agarose beads containing bacteria (50 μL containing about 6.1×10^4 CFU/animal) was published earlier, J. R. Starke et al., Pediatr. Res., 22:698-702 1987. Two groups of mice (n=9 for each group) were treated with 40 mg/kg of 16α-bromoepiandrosterone or vehicle (control) and the bacterial burden in the lungs of the animals was determined at 10 days after introduction of the agarose beads into the lung.

[5] = metabolic stability in liver microsomes: mouse; settings: 10 min
Procedure: (§1) The protocol was performed as follows. […] (2) Set up samples as follows. […] (4) The internal standard/acetonitrile solution.

[6] = other protocols: degree of sulfation and glucuronidation
[7] = system: NF-κB in spleen cells of ICR mice; experiment: activated NF-κB in spleen cell nuclei after LPS, Example 8; type: in vivo, mouse; settings: about 40 mg/kg i.p. 24 h before and 1 h after LPS; spleens 1.5 hours after LPS
Procedure: The capacity of selected compounds to treat LPS induced shock/inflammation in mice was examined by a protocol similar to the protocol described above. Five groups of three ICR mice weighing about 30 g were each treated by intraperitoneal injection with 120 μL vehicle (30% sulfobutylether-cyclodextrin in water), androst-5-ene-3α,7β,16α,17β-tetrol in vehicle, androst-5-ene-3β,4β,16α,17β-tetrol in vehicle or 4β-acetoxyandrost-5-ene-3β,16α,17β-triol in vehicle. All drug and vehicle formulations were solutions, not suspensions. The sulfobutylether-cyclodextrin was obtained commercially (Captisol™, www.cyclexinc.com). There were two vehicle control groups one group received vehicle alone and the other received vehicle plus LPS. […] Drug was administered at about 40 mg/kg (1.2 mg drug/animal for each administration of the drugs). Spleens were harvested from the animals at 1.5 hours after injection of LPS and spleen cells were lysed and assayed for activated NF-κB by isolating nuclei from spleen cells and measuring NF-κB from the lysed nuclei. […] The level of activated NF-κB in spleen cells from the animals that were treated with vehicle and no LPS, was essentially the same as the activated NF-κB in spleen cells from drug treated animals.

female SJL mice, EAE = experiment: experimental autoimmune encephalomyelitis (EAE), PLP-induced, Example 23; type: in vivo, mouse; settings: 0.1 mg q.d. po from clinical onset
[8] = metabolic stability in liver microsomes: human; settings: 10 min
Procedure: as §1

MG-63 cells = experiment: reversal of glucocorticoid effects in MG-63 osteosarcoma cells; type: cell-based, human; settings: 10 nM compound
[9] = system: CF-1 mice, hemorrhagic shock; experiment: hemorrhagic shock and ischemia with abdominal surgery; type: in vivo, mouse; settings: 2 mg in resuscitation fluid; vehicle control 1/15
Procedure: The effect of compounds on hemorrhagic shock and ischemia was examined in another protocol. CF-1 mice at an age of 6-8 months were anesthetized using methoxyfluorothane and prepared for abdominal surgery. Each mouse was tested for the level of respiration, eye blink response and response to a skin pinch to ensure a level of anesthesia appropriate for surgery. The duration of abdominal surgery was approximately two hours, during which time 35-40% of the animal's blood volume is removed over a […]. The removal of blood in a controlled manner simulates the effect of hemorrhagic shock. A slow intravenous infusion of the removed blood and a 2× volume of resuscitation fluid (lactated Ringers solution) into a central vein was made. The resuscitation fluid was supplemented with either 2 mg dehydroepiandrosterone-3β-sulfate or the excipient as a placebo. The peritoneum and overlying skin were sutured separately. Animals were maintained at 38°-39° C. until recovery is complete. Under these conditions, most of the placebo-treated animals died within 24-48 hours. […] Mesenteric lymph nodes (MLN) were removed and cultured on blood agar plates and the number of CFUs counted following culturing. The liver was removed and the amount malondialdehyde was measured.

C[C@]12CC[C@H](O)C[C@@H]1CC[C@@H]1[C@@H]2CC[C@]2(C)C(=O)[C@H](Br)C[C@@H]12 [16α-bromoepiandrosterone]
survival 72 hours after LPS ([1]; 3 mg by oral gavage 24 h before and 1 h after LPS): 65% | survival 72 hours after LPS ([1]; 3 mg by subcutaneous injection 24 h before and 1 h after LPS): 50% | survival at 72 hours ([1]; second assay, oral gavage 24 h before and 1 h after LPS): 80% | maximum NF-κB inhibition (NF-κB; this protocol): 100% | production of γ-interferon [2]: Reduced production | average donor CD45.1 CD4^+CD25^+ cell number in spleens ([3]; day 15, vehicle 1.97×10^5): 0.62×10^5 cells | average endogenous CD45.2 CD4^+CD25^+ cells in the thymus ([3]; day 15, vehicle 3.10×10^5): 1.59×10^5 | average endogenous CD45.2 CD4^+CD25^+ cell number in spleens ([3]; day 15, vehicle 9.54×10^6): 5.49×10^6 cells | proportion of endogenous CD45.2 CD4^+CD25^+CD103^+ Treg cells in spleens ([3]; vehicle 13.85%): 13.40% | average of donor CD45.1 CD4^+CD25^+CD103^+ cells of total donor CD4^+CD25^+ cells in spleens ([3]; vehicle 29.06%): 9.63% | cell counts in the BAL fluid [4]: about 4.4×10^7 cells/mL | bacterial burden in the lungs (Pseudomonas aeruginosa): reduced

C[C@]12CC[C@H]3[C@@H]([C@@H](O)C=C4C[C@H](O)CC[C@@]43C)[C@@H]1C[C@@H](O)[C@@H]2O [androst-5-ene-3α,7β,16α,17β-tetrol]
parent remaining mouse microsomes [5]: 100% (10 min) | degree of sulfation and degree of glucuronidation compared to diols [6]: low | decrease of NF-κB activation compared to LPS+vehicle control group [7]: about 50% | course of EAE compared to vehicle-treated mice (female SJL mice, EAE): very similar to that observed in the vehicle-treated mice | parent remaining human microsomes [8]: 100% (10 min) | osteoprotegerin levels in the presence of 30 nM dexamethasone (MG-63 cells): normal osteoprotegerin levels

C[C@]12CC[C@H]3[C@@H](CCC4C[C@H](O)[C@@H](O)C[C@@]43C)[C@@H]1C[C@@H](O)[C@@H]2O (stereo partly drawn) [androstane-2β,3α,16α,17β-tetrol]
IC50 (NF-κB; Homo sapiens, THP-1, read-out: IC50, this protocol): > 10 µM | melting point: 260 to 263 °C

C[C@]12CC[C@H](OS(=O)(=O)O)CC1=CC[C@@H]1[C@@H]2CC[C@]2(C)C(=O)CC[C@@H]12 [dehydroepiandrosterone-3β-sulfate]
survival [9]: 15/15
